Activity calls are given as the source filed them. The rule behind the calls is not given here.
Tested on: Trypanosoma brucei growth inhibition
Assay: trypanosome proliferation inhibitors (AID 1159557);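 note: parasites exposed to compound for 48 h before the resazurin readout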

Compound | IC50
CC(c1cc(Cl)cc(Cl)c1)N(C)c1ncc2c(N)nc(N)nc2n1 (stereo unspecified) | > 40 µM (inactive)
O=C(CN(c1cccc(C(F)(F)F)c1)S(=O)(=O)c1ccc(Cl)cc1)NCc1ccc(F)c(F)c1 | 10 µM
Cn1cncc1CN1CCC2(CC1)COC(Cc1ccccc1)C2 (stereo unspecified) | > 40 µM (inactive)
OCCCNc1nc(Nc2ccncc2)nc2ccccc12 | 25 µM
CN(Cc1nc2ccccc2s1)C(=O)C=Cc1cc2ccccc2o1 | 32 µM
CCNc1cc(-c2ccccn2)nc(Nc2ccccc2)n1 | 25 µM
CC(C)N(C(=O)CN1C(=O)C(N)C(=O)N(c2ccccc2)c2ccccc21)c1ccccc1 (stereo unspecified) | > 40 µM (inactive)
O=C(Nc1nc2ccccc2[nH]1)c1c(O)c2cccc3c2n(c1=O)CC3 | 16 µM
CN(C)S(=O)(=O)c1cccc(CSc2nnc(-c3ccc4c(c3)OCO4)o2)c1 | 32 µM
O=C(c1ccc(O)c(Cl)c1)N1CCN(c2cnccn2)CC1 | > 40 µM (inactive)
COc1ccc(C2=NCC(CSc3nnc(-c4ccc5c(c4)OCO5)o3)S2)cc1 (stereo unspecified) | 10 µM
CC1(C)CCC(=Cc2ccc(Cl)cc2)CC1(O)Cn1ccnc1 (stereo unspecified) | 10 µM
c1cncc(CN(Cc2ccco2)Cc2cn[nH]c2-c2cccs2)c1 | 25 µM
CCC(c1ccc(F)cc1)n1cncc1-c1cnn(C)c1 (stereo unspecified) | > 40 µM (inactive)
CCC(=O)N1N=C(c2ccc3c(c2)CCCC3)Sc2c1ncn2C(=O)CC | 16 µM
c1ccc(-c2nc(NCc3ccco3)c3ccccc3n2)nc1 | > 40 µM (inactive)
CCCCN(C(=O)c1ccc(NC(=O)C(C)C)cc1)c1ccccc1 | 16 µM
COCc1cc(Nc2ccccc2)nc(-c2ccccn2)n1 | > 40 µM (inactive)
c1cc(-c2ncc(-c3ccn[nH]3)s2)ccn1 | 20 µM
CC(Cn1ccnc1)NC(=O)C=Cc1ccc(Cl)cc1 (stereo unspecified) | > 40 µM (inactive)

Compound | IC50
COc1ccc(CN(C)Cc2ccncc2)cc1-c1ccc(S(=O)(=O)NC2CCC2)s1 | > 40 µM (inactive)
Cc1cc(C)c(C#N)c(SCC(=O)c2ccc3c(c2)OCO3)n1 | 20 µM
COc1cccc(C(=O)[C@H]2C[C@@H]2CN(Cc2cccnc2)Cc2cccnc2)c1 | 32 µM
COc1cccc(Nc2cc(C)nc(-c3ccccn3)n2)c1 | > 40 µM (inactive)
CC(C)(C)c1cc(NC2CC2)nc(-c2ccccn2)n1 | 7.9 µM
COc1ccc(C2C3CCCCC3(O)CCN2CC(=O)Nc2ccc(Cl)cc2Cl)cc1 (stereo unspecified) | 7.9 µM
COc1ccc2c(Cl)c(C(=O)N3CCC3)sc2c1Cl | 20 µM
CC(c1ccc2c(c1)CCCC2)N(C)c1ncc2c(N)nc(N)nc2n1 (stereo unspecified) | 16 µM
Cc1nc(-c2ccc3c(c2)OCO3)sc1C(=O)NCc1ccc2c(c1)OCO2 | 10 µM
Cc1ccc(NC(C)C(=O)Nc2ccc(C#N)cc2)cc1S(=O)(=O)N1CCCCC1 (stereo unspecified) | 7.9 µM
O=C(COc1nn(-c2ccccc2)c2ncccc12)NCc1ccccc1 | > 40 µM (inactive)
Cc1cc(C)n(-c2nc(NC(C)(C)C)nc(N3CCOCC3)n2)n1 | 13 µM
CCN(CC)c1ccc(S(=O)(=O)N(CC)CC)c2nonc12 | 25 µM
CC(=O)Nc1ccc(-c2noc(CC3CCCN(Cc4cccc(F)c4C)C3)n2)cc1 (stereo unspecified) | 20 µM
O=C(CSc1ccc(-c2ccccn2)nn1)Nc1ccc(Cl)cc1 | 10 µM
O=C(NCCc1cccnc1)c1csc(-c2ccccc2)n1 | 25 µM
COc1ccc(-c2cc(C)no2)cc1S(=O)(=O)Nc1ccc(C)c(C)c1 | 20 µM
CCCC(=O)N(Cc1ccccn1)c1nc2ccccc2s1 | 20 µM
Cc1cc2cncn2c(C2CCCCN2C(=O)c2cccs2)n1 (stereo unspecified) | > 40 µM (inactive)
O=S(=O)(c1ccccc1C(F)(F)F)N1CCN(Cc2ccc(-n3ccnc3)cc2)CC1 | > 40 µM (inactive)

Compound | IC50
CCc1nn(-c2ncc(F)c(NC(C)C)n2)c(N)c1C1CCCCC1 | 10 µM
CC(=O)Nc1nc(-c2cc(C)ccc2C)c(C)s1 | > 40 µM (inactive)
c1ccc(Nc2nc3ccccc3[nH]2)nc1 | 16 µM
Clc1ccc(Sc2cnccc2N2CCOCC2)cc1 | 25 µM
Fc1ccc(Nc2nc(-c3ccccn3)cs2)cc1 | 25 µM
CCN(Cc1cccs1)C(=O)CSc1nnc(-c2ccc3c(c2)OCO3)o1 | 25 µM
COc1cc(C(C)C)c(S(C)(=O)=O)cc1C(=O)N1CCN(c2ccccc2Cl)CC1 | 25 µM
CC(C)c1cc(C(=O)N2CCCC(c3cc4ncccc4[nH]3)C2)on1 (stereo unspecified) | > 40 µM (inactive)
c1ccc2c(CCOc3nccnc3-c3ccncc3)c[nH]c2c1 | 32 µM
Cn1cc(CN2CCN(c3ccc4c(c3)CCN(C(=O)[C@H]3C[C@@H]3c3ccccc3)CC4)CC2)cn1 | 25 µM
NC(=O)c1cc(NC(=O)c2ccccc2COc2ccccc2)ccc1Cl | 16 µM
O=c1[nH]ccc2ccc(-c3ccncc3)cc12 | 32 µM
O=S(=O)(NCC(c1cccnc1)N1CCN(c2ccc(F)cc2)CC1)c1cccs1 (stereo unspecified) | > 40 µM (inactive)
CC(CCc1ccccc1)NC(=O)CN(Cc1ccccn1)Cc1ccccn1 (stereo unspecified) | 10 µM
O=c1oc2ccccc2n1C1CCN(Cc2ccccc2-c2cccnc2)CC1 | 40 µM
CN(Cc1cccnc1)Cc1ccc(N2CCN(C(=O)C3(c4ccc(Cl)cc4)CC3)CC2)nc1 | 32 µM
N#Cc1cccc(Nc2nccc(N3CCC(NS(=O)(=O)c4cccc(C#N)c4)CC3)n2)c1 | 6.3 µM
O=C1CN(C2CCCc3c(OCc4ccncc4)cccc32)C(=O)N1C1CCCCC1 (stereo unspecified) | 16 µM
COc1ccc(C2CC(c3ccc(NS(C)(=O)=O)cc3)=NN2C(=O)c2cccs2)cc1OC (stereo unspecified) | 16 µM

Other lines, results leading:

IC50 | Compound
0.32 µM | COc1ccc2ncc(Cl)c(CCN3CC[C@@H](NCc4cc5c(cn4)OCS5)[C@H](O)C3)c2n1
0.63 µM | Cn1nccc1NC(=O)Cn1ccc(-c2ccncc2)n1
0.32 µM | O=[N+]([O-])c1ccc(-c2nnn(-c3ccc(Cl)cc3)n2)o1
0.5 µM | O=C(Nc1nc(-c2ccccn2)cs1)N1C[C@H]2C[C@@]2(c2ccccc2)C1
0.01 µM | Cc1sc(C)c(C(F)(F)F)c1CNCCCNc1cc(=O)c2ccccc2[nH]1
0.2 µM | COc1ncc(-c2ccc3nccc(-c4ccncc4)c3c2)cc1NS(=O)(=O)C1CC1
0.25 µM | COc1cnc2ccc(=O)n(CCN3CCC(NC(=O)Cc4ccc(Cl)c(Cl)c4)CC3)c2c1
0.32 µM | COc1ccc(NS(=O)(=O)c2cc(-c3cc(C)[nH]n3)ccc2C)cc1OC
0.16 µM | O=C(N[C@H](CO)c1ccccc1)c1ccc(-c2c[nH]c3nccc(C(F)(F)F)c23)s1
6.3 µM | Cc1ccccc1CNC(=O)CN(Cc1ccccn1)Cc1ccccn1
3.2 µM | Cc1nc2c(-c3ncn[nH]3)cc(NC(=O)Cc3ccccc3)cn2c1C
0.2 µM | CC(=O)NCCNc1cc(-c2ccnc(Nc3cccc(Cl)c3)n2)ccn1
0.25 µM | COc1ccc(C(=O)Nc2ccc(NC(=O)CO)cc2)cc1
2 µM | Cn1ccnc1-c1nc(NCc2ccccc2Cl)cc(C2CC2)n1
0.4 µM | CN1C(=O)c2ccccc2Sc2ccc(NC(=O)NCc3ccco3)cc21
5 µM | Cc1c(CNC(=O)c2ccc(Cn3cc(Cl)c([N+](=O)[O-])n3)cc2)cnn1C
0.2 µM | O=c1ccc2ccc(F)c3c2n1C[C@H]3CN1CCN(CC(O)c2cc3c(cn2)OCS3)CC1 (stereo partly specified)
0.5 µM | Cc1[nH]nc(C(F)(F)F)c1NC(=O)CCn1cc(Cl)c([N+](=O)[O-])n1
0.63 µM | CNC(=O)C1Cc2ccccc2N1C(=O)Cc1ccccc1 (stereo unspecified)
4 µM | Cc1ccc2c(c1)SC(C(=O)Nc1n[nH]c(-c3ccccn3)n1)C2 (stereo unspecified)
0.01 µM | O=c1cc(NCCCNC2CCOc3c(I)cc(Cl)cc32)[nH]c2ccccc12 (stereo unspecified)
0.79 µM | O=C(Cn1cnc2c(-c3ccccc3)csc2c1=O)N1CCCCC1
0.79 µM | Cc1ccc(Nc2nc(C3CCCN3Cc3ccn[nH]3)cs2)nc1 (stereo unspecified)
0.1 µM | CC(C)C[C@H](NC(=O)c1ccc(-c2ccccc2)o1)C(=O)NC1(C#N)CC1
0.05 µM | Cc1cc(Nc2cc(C3CC3)[nH]n2)nc(N2CCCC2)n1
0.13 µM | CC(=O)Nc1cccc(Nc2ncnc3nc[nH]c23)c1

IC50 | Compound
0.4 µM | O=C(CSc1nnc2ccc(-c3ccc(F)cc3)nn12)N1CCCCC1
0.16 µM | NC(=O)c1cc(F)ccc1Nc1nc(NC2CCC(O)CC2)ncc1Cl (stereo unspecified)
0.5 µM | CCOc1ccc(CC(=O)N2c3ccccc3CC2C(=O)NC)cc1 (stereo unspecified)
0.13 µM | CC1CCCCN1C(=O)NCCc1coc(-c2ccc(F)cc2)n1 (stereo unspecified)
3.2 µM | CCc1cc(C(=O)Nc2nccn2-c2ccccc2)cs1
0.63 µM | O=c1ccc2ccc(F)c3c2n1C[C@H]3CN1CCC(NCc2cc3ccccc3o2)CC1
0.25 µM | CNC(=O)C1Cc2ccccc2N1C(=O)Cc1ccc(F)cc1 (stereo unspecified)
6.3 µM | O=C(NCc1ccncc1)c1ccccc1N1CCCN(C(=O)Cc2ccc(F)c(F)c2)CC1
0.2 µM | Cc1ccnc(NS(=O)(=O)c2ccc(NC(=O)c3ccc([N+](=O)[O-])s3)cc2)n1
0.63 µM | CC(C)CC(=O)NC(c1cccs1)c1ccc2cccnc2c1O (stereo unspecified)
0.32 µM | CCCCCNC(=O)c1c[nH]c2ccc(S(=O)(=O)N(C)c3ccc(OCC)cc3)cc2c1=O
0.5 µM | CCc1ccc2nc(NC(=O)c3cc(N4CCOCC4)ccn3)sc2c1
0.63 µM | Nc1nonc1-c1nc2cncc(C(=O)N3CC[C@H](N)C3)c2n1CC1CC1
0.32 µM | O=C1CN(Cc2ccco2)C2CS(=O)(=O)CC2N1c1ccc(Cl)cc1 (stereo unspecified)
3.2 µM | O=C(Nc1nc(-c2ccccn2)cs1)C1CCc2ccccc2C1 (stereo unspecified)
0.025 µM | Cc1cnc(Nc2cc(Cc3ccccc3)nc(NC3CCC(O)CC3)n2)s1 (stereo unspecified)
0.25 µM | O=C(Cc1ccccc1)Nc1ccccc1C(=O)Nc1nccs1
4 µM | Cn1nc(C(=O)N2CCc3ccccc32)c2c1CCS(=O)(=O)C2
0.79 µM | Cc1cc(C#N)c([N+](=O)[O-])cc1Br
0.63 µM | COc1ccc2ncc(=O)n(CCN3CCOC(CNCc4ccc(C(F)(F)F)cc4F)C3)c2n1 (stereo unspecified)
0.63 µM | CC(C)(C)C(=O)NCCc1csc(-c2ccc(F)cc2)n1
3.2 µM | Cc1ccc(-c2csc(NC(=O)C=Cc3ccc(S(=O)(=O)N4CCOCC4)cc3)n2)o1
1 µM | COc1cccc(S(=O)(=O)Nc2ccc3c(c2)CC(N2CCC(NC(=O)C4CC4)CC2)C3)c1 (stereo unspecified)
0.63 µM | COc1ccc(NS(=O)(=O)c2cccc(NC(=O)c3cc(F)cc(F)c3)c2)cc1
0.4 µM | COc1cnc2ccc(=O)n(CCN3CCC(NC/C=C/c4cc(F)ccc4F)CC3)c2c1
3.2 µM | CCn1c(NC(=O)Cc2ccc(F)cc2)nc2ccccc21
